Measured values from the supplement of paper PMC8960247.
Structures can show the parent of a compound that is named as a salt. ± gives the standard error.

How the values were obtained:
621-102 (TSC2-deficient) [1] = test: relative viability vs DMSO; higher = less cytotoxic; settings: serum: 10% FBS, 72 h
621-103 (TSC2-rescued) = test: as above; settings: serum: 10% FBS, 72 h
621-102 (TSC2-deficient) [2] = test: relative viability vs DMSO (fraction); higher = less cytotoxic; settings: serum: 0.1% FBS, 72 h
UMB1949 (TSC2-deficient) = test: as above; settings: serum: 0.1% FBS, 72 h;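 note: renal angiomyolipoma cell lines screened in 384-well plates, viability normalized per plate to DMSO-treated cells, each plate carrying 50 nM rapamycin and 1 µM staurosporine controls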

| Structure (SMILES) | relative viability (621-102 (TSC2-deficient) [1]; 0.0001 µM) [%] | relative viability (621-102 (TSC2-deficient) [1]; 0.001 µM) [%] | relative viability (621-102 (TSC2-deficient) [1]; 0.01 µM) [%] | relative viability (621-102 (TSC2-deficient) [1]; 0.1 µM) [%] | relative viability (621-102 (TSC2-deficient) [1]; 1 µM) [%] | relative viability (621-102 (TSC2-deficient) [1]; 10 µM) [%] | relative viability (621-103 (TSC2-rescued); 0.0001 µM) [%] | relative viability (621-103 (TSC2-rescued); 0.001 µM) [%] | relative viability (621-103 (TSC2-rescued); 0.01 µM) [%] | relative viability (621-103 (TSC2-rescued); 0.1 µM) [%] | relative viability (621-103 (TSC2-rescued); 1 µM) [%] | relative viability (621-103 (TSC2-rescued); 10 µM) [%] | relative viability (621-102 (TSC2-deficient) [2]; 0.0128 nM) | relative viability (621-102 (TSC2-deficient) [2]; 0.064 nM) | relative viability (621-102 (TSC2-deficient) [2]; 0.32 nM) | relative viability (621-102 (TSC2-deficient) [2]; 1.6 nM) | relative viability (621-102 (TSC2-deficient) [2]; 8 nM) | relative viability (621-102 (TSC2-deficient) [2]; 40 nM) | relative viability (621-102 (TSC2-deficient) [2]; 200 nM) | relative viability (621-102 (TSC2-deficient) [2]; 1000 nM) | relative viability (621-102 (TSC2-deficient) [2]; 5000 nM) | relative viability (UMB1949 (TSC2-deficient); 0.0128 nM) | relative viability (UMB1949 (TSC2-deficient); 0.064 nM) | relative viability (UMB1949 (TSC2-deficient); 0.32 nM) | relative viability (UMB1949 (TSC2-deficient); 1.6 nM) | relative viability (UMB1949 (TSC2-deficient); 8 nM) | relative viability (UMB1949 (TSC2-deficient); 40 nM) | relative viability (UMB1949 (TSC2-deficient); 200 nM) | relative viability (UMB1949 (TSC2-deficient); 1000 nM) | relative viability (UMB1949 (TSC2-deficient); 5000 nM) |
| --- | --- | --- | --- | --- | --- | --- | --- | --- | --- | --- | --- | --- | --- | --- | --- | --- | --- | --- | --- | --- | --- | --- | --- | --- | --- | --- | --- | --- | --- | --- |
| Cc1ccc(C(=O)Nc2cccc(C(F)(F)F)c2)cc1Nc1nc(-c2cccnc2)nc2c1cnn2C [NVP-BHG712] | 108 ± 1.1 | 108 ± 0.36 | 107 ± 2.5 | 102 ± 2.6 | 99.4 ± 2 | 33.9 ± 4 | 105 ± 1.7 | 104.74 ± 0.059 | 102 ± 1.1 | 95.4 ± 2.5 | 78.2 ± 1.3 | 17.4 ± 1.2 | 1.3 | 1.15 | 1.19 | 1.1 | 1.24 | 1.37 | 0.67 | 0.135 | 0.011 | 1.21 | 1.1 | 1.09 | 1.12 | 1.12 | 1.14 | 0.95 | 0.301 | 0.0076 |
| COC1=CC(c2cc3ccccc3[nH]2)=N/C1=C\c1[nH]c(C)cc1C [Obatoclax Mesylate] | 116.6 ± 0.46 | 115 ± 5.2 | 101.8 ± 0.93 | 54 ± 2.3 | 16.9 ± 0.25 | 5.18 ± 0.8 | 102.9 ± 0.9 | 99.7 ± 1.6 | 96.8 ± 0.97 | 68.9 ± 2 | 28.8 ± 0.29 | 5.57 ± 0.73 | 1.24 | 0.96 | 1.05 | 1.17 | 1.06 | 0.847 | 0.128 | 0.00422 | 0.00238 | 1.1 | 1.01 | 1.06 | 1.08 | 1 | 0.616 | 0.0115 | 0.00837 | 0.0101 |
| Nc1nc2[nH]cc(CCc3ccc(C(=O)N[C@@H](CCC(=O)O)C(=O)O)cc3)c2c(=O)[nH]1 [Pemetrexed disodium] | 107 ± 2.3 | 101 ± 4.2 | 107 ± 5.4 | 93.8 ± 4.3 | 94.1 ± 6.1 | 81.27 ± 0.71 | 102 ± 2.4 | 92.3 ± 6.5 | 102 ± 1.6 | 106 ± 1.4 | 104.4 ± 0.47 | 88.6 ± 7.4 | 1.25 | 1.15 | 1.17 | 1.17 | 1.09 | 0.126 | 0.0307 | 0.0251 | 0.0247 | 1.05 | 0.979 | 1.03 | 0.984 | 1.02 | 0.0167 | 0.00471 | 0.00243 | 0.000722 |
| Nc1cccc2c1C(=O)N(C1CCC(=O)NC1=O)C2=O (stereo not given) [Pomalidomide] | 107 ± 1.1 | 112 ± 1.7 | 108 ± 3.3 | 116 ± 1.5 | 118 ± 2.1 | 118 ± 4 | 104.77 ± 0.07 | 102.3 ± 0.72 | 101.3 ± 0.69 | 96.9 ± 1.3 | 98.59 ± 0.92 | 100.7 ± 0.95 | 1.18 | 0.947 | 1.03 | 0.975 | 0.951 | 1.02 | 0.939 | 0.985 | 0.951 | 1.06 | 0.959 | 1.04 | 1.03 | 1.18 | 1.04 | 1.07 | 0.943 | 0.912 |
| Cn1c(Nc2ccc(C(F)(F)F)cc2)nc2cc(Oc3ccnc(-c4ncc(C(F)(F)F)[nH]4)c3)ccc21 [RAF265] | 111 ± 3.9 | 107 ± 4.3 | 101 ± 2.5 | 92.9 ± 1.1 | 60.4 ± 1.5 | 41.5 ± 2 | 99.71 ± 0.95 | 102 ± 2.3 | 100.7 ± 0.72 | 92.7 ± 2.6 | 78.2 ± 2.2 | 64.1 ± 0.7 | 1.01 | 1.13 | 1.04 | 1.07 | 0.927 | 0.488 | 0.0802 | 0.0481 | 0.00102 | 1.1 | 1.02 | 1.13 | 1.06 | 1.19 | 1.11 | 0.216 | 0.00279 | 0.00183 |
